Molecular target: T1, N-formyl peptide receptor 2 (Homo sapiens, UniProt P25090)
T1 sequence (P25090 whole entry): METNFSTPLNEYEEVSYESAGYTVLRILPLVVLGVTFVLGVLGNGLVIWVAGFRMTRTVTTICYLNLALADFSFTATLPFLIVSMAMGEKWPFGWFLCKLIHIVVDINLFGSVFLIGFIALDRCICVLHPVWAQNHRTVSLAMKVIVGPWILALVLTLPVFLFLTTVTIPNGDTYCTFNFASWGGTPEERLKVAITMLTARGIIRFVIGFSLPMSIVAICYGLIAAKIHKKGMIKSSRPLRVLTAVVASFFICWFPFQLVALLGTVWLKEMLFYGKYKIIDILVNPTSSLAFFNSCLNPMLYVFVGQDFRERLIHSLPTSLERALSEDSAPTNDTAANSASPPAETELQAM
Experiment: concentration-dependent FPRL1 ligand displacement – cell-based, FPR counter-screen, fluorescent ligand, dose response (AID 520)

COC(=O)c1[nH]c(C)c(C(=O)C2C(=O)C(=O)N(CCCN3CCOCC3)C2c2ccccn2)c1C (configuration not stated) [methyl 4-{[4-hydroxy-1-[3-(4-morpholinyl)propyl]-5-oxo-2-(2-pyridinyl)-2,5-dihydro-1H-pyrrol-3-yl]carbonyl}-3,5-dimethyl-1H-pyrrole-2-carboxylate]
IC50: > 66.7 µM
Ki: > 40.3 µM

From BindingDB's records for doi:10.7270/Q2DF6PMF (Nmmlsc, 2007)
